The supplement of paper PMC10307832

Assays:
Experiment in all cases: relative viability (nuclei count vs DMSO), 5 days (fraction); higher = more cells survive
[1] = compound: C1COCCN1C2=NC(=NC3=C2OC4=C3C=CC=N4)C5=CC(=CC=C5)NC(=O)C6=CN=C(C=C6)N + CS(=O)(=O)CCNCc1ccc(-c2ccc3ncnc(Nc4ccc(OCc5cccc(F)c5)c(Cl)c4)c3c2)o1 [Lapatinib] (partner 2 µM)
Method in brief: (§1)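 Nuclei were stained with Hoechst during a one-step fixation (final 0.05% Triton X-100, 1% formaldehyde, 1 ug/ml Hoechst) carried out 5 days after dosing, then counted on 4× images. The cells, lung cancer lines in 1536-well plates, had been dosed by pin tool the day after seeding with one drug alone or a fixed anchor-drug dose plus five library-drug doses (not always all listed) in √10 steps. Relative viability is the nuclei count in treated wells divided by that in vehicle wells, and each value is the median of duplicate plates.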

SGI-1776 + Trametinib = compound: CN1CCC(CNc2ccc3ncc(-c4cccc(OC(F)(F)F)c4)n3n2)CC1 [SGI-1776] + CC(=O)Nc1cccc(-n2c(=O)n(C3CC3)c(=O)c3c(Nc4ccc(I)cc4F)n(C)c(=O)c(C)c32)c1 [Trametinib] (partner 0.02 µM)
Method in brief: as §1

Entinostat + Luminespib = compound: Nc1ccccc1NC(=O)c1ccc(CNC(=O)OCc2cccnc2)cc1 [Entinostat] + CCNC(=O)c1noc(-c2cc(C(C)C)c(O)cc2O)c1-c1ccc(CN2CCOCC2)cc1 [Luminespib] (partner 0.01 µM)
Method in brief: as §1

Entinostat + Dasatinib = compound: Nc1ccccc1NC(=O)c1ccc(CNC(=O)OCc2cccnc2)cc1 [Entinostat] + Cc1nc(Nc2ncc(C(=O)Nc3c(C)cccc3Cl)s2)cc(N2CCN(CCO)CC2)n1 [Dasatinib] (partner 0.075 µM)
Method in brief: as §1

Cell Line: UMC-11
- relative viability ([1]; first compound 0.02 µM): 0.927
- relative viability ([1]; first compound 0.06325 µM): 1.09
- relative viability ([1]; first compound 0.2 µM): 0.918
- relative viability ([1]; first compound 0.6325 µM): 1.06
- relative viability ([1]; first compound 2 µM): 0.822
- relative viability (SGI-1776 + Trametinib; first compound 0.08 µM): 0.719
- relative viability (SGI-1776 + Trametinib; first compound 0.8 µM): 0.684
- relative viability (SGI-1776 + Trametinib; first compound 2.53 µM): 0.787
- relative viability (SGI-1776 + Trametinib; first compound 8 µM): 0.432
- relative viability (Entinostat + Luminespib; first compound 0.02 µM): 1.06
- relative viability (Entinostat + Luminespib; first compound 0.06325 µM): 1.14
- relative viability (Entinostat + Luminespib; first compound 0.2 µM): 0.937
- relative viability (Entinostat + Luminespib; first compound 0.6325 µM): 0.261
- relative viability (Entinostat + Luminespib; first compound 2 µM): 0.221
- relative viability (Entinostat + Dasatinib; first compound 0.02 µM): 0.468
- relative viability (Entinostat + Dasatinib; first compound 0.06325 µM): 0.478
- relative viability (Entinostat + Dasatinib; first compound 0.2 µM): 0.399
- relative viability (Entinostat + Dasatinib; first compound 0.6325 µM): 0.193
- relative viability (Entinostat + Dasatinib; first compound 2 µM): 0.17
